Blank lines part the entries; values can stand above or below the molecule they belong to.
What was measured:
[1] = Volume of distribution at steady state in mouse at 5 mg/kg, iv; assay type: ADME, organism-based; set-up: dose 5 mg/kg, route intravenous; details: in vivo, read-out: Vdss
[2] = AUC in mouse at 20 mg/kg, po; assay type: ADME, organism-based; set-up: dose 20 mg/kg, route oral; details: plasma
[3] = AUC in mouse at 5 mg/kg, iv; assay type: ADME, organism-based; set-up: dose 5 mg/kg, route intravenous; details: plasma
[4] = Cmax in mouse at 5 mg/kg, iv; assay type: ADME, organism-based; set-up: dose 5 mg/kg, route intravenous; details: in vivo
[5] = Cmax in mouse at 20 mg/kg, po; assay type: ADME, organism-based; set-up: dose 20 mg/kg, route oral; details: in vivo
[6] = Oral bioavailability in mouse at 20 mg/kg; assay type: ADME, organism-based; details: in vivo
in vitro [7] = details: human, Caco-2
in vitro [8] = details: human, Caco-2; remark: listed apart in the source
[9] = AUC in mouse plasma at 20 mg/kg up to 5 hrs; assay type: ADME, organism-based; set-up: time < 5 hr, dose 20 mg/kg
[10] = Cmax in ob/ob mouse at 30 mg/kg, po qd measured on day 37; assay type: ADME, organism-based; set-up: dose 30 mg/kg, route oral; details: in vivo
[11] = AUC in ob/ob mouse at 30 mg/kg, po qd measured on day 37; assay type: ADME, organism-based; set-up: dose 30 mg/kg, route oral; details: plasma
[12] = AUC in ob/ob mouse at 30 mg/kg, po qd measured on day 1; assay type: ADME, organism-based; set-up: dose 30 mg/kg, route oral; details: plasma
[13] = Cmax in ob/ob mouse at 30 mg/kg, po qd measured on day 1; assay type: ADME, organism-based; set-up: dose 30 mg/kg, route oral; details: in vivo
[14] = Lipophilicity, log D of the compound at pH 6.8; assay type: physicochemical; details: buffer

Papp B→A (in vitro [7]): 6.4 ×10⁻⁶ cm/s
Papp A→B (in vitro [8]): 2.12 ×10⁻⁶ cm/s
AUC at 5 h [9]: 5.02 µM·h
SMILES: N#Cc1ccc(CCNC(=O)[C@@H]2CCCN(c3cc(N4CCC(Oc5ccc(CC(=O)O)cc5)CC4)nc(C(F)(F)F)n3)C2)cc1

AUC at 5 h [9]: 14.2 µM·h
SMILES: N#Cc1ccc(CCNC(=O)[C@@H]2CCN2c2cc(N3CCC(Oc4ccc(CC(=O)O)cc4)CC3)nc(C(F)(F)F)n2)cc1

AUC at 5 h [9]: 7.53 µM·h
SMILES: N#Cc1ccc(CCNC(=O)[C@@H]2CCN2c2cc(N3CCC(Oc4ccc(C(=O)O)cc4)CC3)nc(C(F)(F)F)n2)cc1

Papp B→A (in vitro [7]): 12.9 ×10⁻⁶ cm/s
Papp A→B (in vitro [8]): 2.7 ×10⁻⁶ cm/s
AUC at 5 h [9]: 3.74 µM·h
SMILES: COc1cc(C2CCN(c3cc(N4CC[C@H]4C(=O)NCCc4ccc(C#N)cc4)nc(C(F)(F)F)n3)CC2)ccc1C(=O)O

The next lines start with the molecule.

SMILES: CN1CCN(c2cc(N3CCC[C@@H](C(=O)NCCc4ccc(C#N)cc4)C3)nc(C(F)(F)F)n2)CC1
Vd [1]: 1.6 L/kg
AUC [2]: 2.54 µM·h
AUC [3]: 2.67 µM·h
Cmax [4]: 4.52 µM
Cmax [5]: 1.07 µM
bioavailability [6]: 24%

SMILES: N#Cc1ccc(CCNC(=O)[C@@H]2CCCN(c3cc(N4CCC(C(=O)O)CC4)nc(C(F)(F)F)n3)C2)cc1
Papp B→A (in vitro [7]): 13 ×10⁻⁶ cm/s
Papp A→B (in vitro [8]): 1.36 ×10⁻⁶ cm/s
AUC at 5 h [9]: 0.108 µM·h

SMILES: CC1(C(=O)O)CCN(c2cc(N3CCC[C@@H](C(=O)NCCc4ccc(C#N)cc4)C3)nc(C(F)(F)F)n2)CC1
Papp B→A (in vitro [7]): 13.5 ×10⁻⁶ cm/s
Papp A→B (in vitro [8]): 1.02 ×10⁻⁶ cm/s
AUC at 5 h [9]: 1.05 µM·h

SMILES: N#Cc1ccc(CCNC(=O)[C@@H]2CCN2c2cc(-c3ccc(-c4ccc(C(=O)O)cc4)cc3)nc(C(F)(F)F)n2)cc1
AUC at 5 h [9]: 13.9 µM·h

SMILES: N#Cc1ccc(CCNC(=O)[C@@H]2CCN2c2cc(-c3ccc([C@H]4CC[C@H](C(=O)O)CC4)cc3)nc(C(F)(F)F)n2)cc1
Cmax [10]: 5.17 µM
AUC [11]: 37.5 µM·h
AUC [12]: 45.5 µM·h
Vd [1]: 1.31 L/kg
AUC [2]: 53.8 µM·h
AUC [3]: 13.9 µM·h
Cmax [4]: 12 µM
Cmax [13]: 4.77 µM
Cmax [5]: 9.75 µM
logD [14]: 2.5
bioavailability [6]: 96.5%
AUC at 5 h [9]: 11.4 µM·h

— ChEMBL document CHEMBL3232835, “Discovery of trifluoromethyl(pyrimidin-2-yl)azetidine-2-carboxamides as potent, orally bioavailable TGR5 (GPBAR1) agonists: structure-activity relationships, lead optimization, and chronic in vivo efficacy” (J Med Chem, 2014)
